In publication PMC12210654, “Palazestrant, a novel oral Complete Estrogen Receptor Antagonist (CERAN) and Selective Estrogen Receptor Degrader (SERD), in patients with ER+/HER2− advanced or metastatic breast cancer: phase 1/2 study results” (Breast Cancer Research : BCR, 2025):
Several values for one entry are separate records, joined by “and”; a condition that tells them apart may be missing. Equal entries are not always repeated. Entries after “also recorded” stand apart in the source; their conditions may differ.

Assay: Safety: adverse events (NCI CTCAE v5.0), electrocardiograms
Type: in vivo, human
Conditions: for TEAE Neutropenia, Any grade / TEAE Neutropenia, Grade 3 / TEAE Neutropenia, Grade 4 / TRAE Neutropenia, Any grade / TRAE Neutropenia, Grade 3 / TRAE Neutropenia, Grade 4: includes neutropenia, neutrophil count decreased, febrile neutropenia
Experimental: Safety assessments included the monitoring of AEs, clinical laboratory parameters, electrocardiograms, and vital signs. AE severity was graded according to the National Cancer Institute Common Terminology Criteria for Adverse Events (version 5.0).
All DLT analyses (phase 1a) were performed in patients enrolled in the study during cycle 1 and who either received 75% of the planned palazestrant doses or experienced a DLT during cycle 1. All PK analyses were performed in patients who received at least 1 dose of palazestrant and had adequate postbaseline PK samples for characterization of PK parameters. All safety analyses were performed and PFS assessed in patients who received at least 1 dose of palazestrant. Clinical response (CR or PR) was assessed in patients who received at least 1 cycle of palazestrant, had measurable disease at baseline, and had at least 1 postbaseline tumor assessment. CBR was assessed in patients who received at least 1 cycle of palazestrant, had at least 1 postbaseline tumor assessment, and started their first dose at least 24 weeks before data cutoff. Patients who discontinued study treatment without radiographic progression within 24 weeks from the first dose were not included in the CBR analysis. PK parameters were estimated using conventional noncompartmental methods. For CBR, estimates were accompanied by 2-sided 95% confidence intervals (95% CIs). For PFS, Kaplan–Meier analyses were used to determine medians, event-free rates, and 95% CIs. For all other outcomes, categorical data were analyzed using frequencies and percentages, and continuous data were analyzed using means (standard deviation) or medians (range), as appropriate.

[1] = any patients treated with palazestrant

## CCCN1CC(Oc2ccc([C@@H]3c4[nH]c5ccccc5c4C[C@@H](C)N3CC(C)(C)F)cc2)C1 [palazestrant, Palazestrant]
60 mg (n = 30)
  TEAE Constipation, Any grade: 6 (20.0) n (%)
  TEAE Constipation, Grade 3: 0 n (%)
  TEAE Constipation, Grade 4: 0 n (%)
  TEAE Diarrhea, Any grade: 6 (20.0) n (%)
  TEAE Diarrhea, Grade 3: 1 (3.3) n (%)
  TEAE Diarrhea, Grade 4: 0 n (%)
  TEAE Fatigue, Any grade: 13 (43.3) n (%)
  TEAE Fatigue, Grade 3: 0 n (%)
  TEAE Fatigue, Grade 4: 0 n (%)
  TEAE Headache, Any grade: 7 (23.3) n (%)
  TEAE Headache, Grade 3: 0 n (%)
  TEAE Headache, Grade 4: 0 n (%)
  TEAE Nausea, Any grade: 14 (46.7) n (%)
  TEAE Nausea, Grade 3: 0 n (%)
  TEAE Nausea, Grade 4: 0 n (%)
  TEAE Vomiting, Any grade: 5 (16.7) n (%)
  TEAE Vomiting, Grade 3: 0 n (%)
  TEAE Vomiting, Grade 4: 0 n (%)
  TRAE Fatigue, Any grade: 9 (30.0) n (%)
  TRAE Fatigue, Grade 3: 0 n (%)
  TRAE Fatigue, Grade 4: 0 n (%)
  TRAE Headache, Any grade: 3 (10.0) n (%)
  TRAE Headache, Grade 3: 0 n (%)
  TRAE Headache, Grade 4: 0 n (%)
  TRAE Nausea, Any grade: 10 (33.3) n (%)
  TRAE Nausea, Grade 3: 0 n (%)
  TRAE Nausea, Grade 4: 0 n (%)
  TRAE Vomiting, Any grade: 3 (10.0) n (%)
  TRAE Vomiting, Grade 3: 0 n (%)
  TRAE Vomiting, Grade 4: 0 n (%)
  TEAE Neutropenia, Any grade: 2 (6.7) n (%)
  TEAE Neutropenia, Grade 3: 0 n (%)
  TEAE Neutropenia, Grade 4: 0 n (%)
  TRAE Neutropenia, Any grade: 0 n (%)
  TRAE Neutropenia, Grade 3: 0 n (%)
  TRAE Neutropenia, Grade 4: 0 n (%)
120 mg (n = 86)
  TEAE Constipation, Any grade: 15 (17.4) n (%)
  TEAE Constipation, Grade 3: 0 n (%)
  TEAE Constipation, Grade 4: 0 n (%)
  TEAE Diarrhea, Any grade: 12 (14.0) n (%)
  TEAE Diarrhea, Grade 3: 0 n (%)
  TEAE Diarrhea, Grade 4: 0 n (%)
  TEAE Fatigue, Any grade: 22 (25.6) n (%)
  TEAE Fatigue, Grade 3: 3 (3.5) n (%)
  TEAE Fatigue, Grade 4: 0 n (%)
  TEAE Headache, Any grade: 17 (19.8) n (%)
  TEAE Headache, Grade 3: 0 n (%)
  TEAE Headache, Grade 4: 0 n (%)
  TEAE Nausea, Any grade: 54 (62.8) n (%)
  TEAE Nausea, Grade 3: 3 (3.5) n (%)
  TEAE Nausea, Grade 4: 0 n (%)
  TEAE Vomiting, Any grade: 25 (29.1) n (%)
  TEAE Vomiting, Grade 3: 4 (4.7) n (%)
  TEAE Vomiting, Grade 4: 0 n (%)
  TRAE Fatigue, Any grade: 17 (19.8) n (%)
  TRAE Fatigue, Grade 3: 2 (2.3) n (%)
  TRAE Fatigue, Grade 4: 0 n (%)
  TRAE Headache, Any grade: 13 (15.1) n (%)
  TRAE Headache, Grade 3: 0 n (%)
  TRAE Headache, Grade 4: 0 n (%)
  TRAE Nausea, Any grade: 47 (54.7) n (%)
  TRAE Nausea, Grade 3: 3 (3.5) n (%)
  TRAE Nausea, Grade 4: 0 n (%)
  TRAE Vomiting, Any grade: 21 (24.4) n (%)
  TRAE Vomiting, Grade 3: 2 (2.3) n (%)
  TRAE Vomiting, Grade 4: 0 n (%)
  TEAE Neutropenia, Any grade: 21 (24.4) n (%)
  TEAE Neutropenia, Grade 3: 3 (3.5) n (%)
  TEAE Neutropenia, Grade 4: 6 (7.0) n (%)
  TRAE Neutropenia, Any grade: 18 (20.9) n (%)
  TRAE Neutropenia, Grade 3: 3 (3.5) n (%)
  TRAE Neutropenia, Grade 4: 5 (5.8) n (%)
120 mg/day
  grade 4 neutropenia resolved with dose interruption followed by dose reduction, treatment continued with no further neutropenia: 3 patients
120 mg/day (n = 86)
  Grade 3 TEAE fatigue: 3.5%
  Grade 3 TEAE nausea: 3.5%
  Grade 3 TEAE neutropenia: 3.5%
  Grade 3 TEAE vomiting: 4.7%
  TEAE fatigue, any grade: 25.6%
  TEAE nausea, any grade: 62.8%
  TEAE vomiting, any grade: 29.1%
  TRAE fatigue, any grade: 19.8%
  TRAE headache, any grade: 15.1%
  TRAE nausea, any grade: 54.7%
  TRAE neutropenia, any grade: 20.9%
  TRAE vomiting, any grade: 24.4%
  grade 3 TRAE fatigue: 2.3%
  grade 3 TRAE nausea: 3.5%
  grade 3 TRAE neutropenia: 3.5%
  grade 3 TRAE vomiting: 2.3%
  grade 4 TEAE acute respiratory failure: 1 patients
  grade 4 TEAE neutropenia: 6 patients
  grade ≥ 3 TEAE neutropenia: 10.5%
  patients with 3 grade 4 events (pulmonary embolism, diverticulitis, acute left ventricular failure): 1 patient
  patients with Grade 3 TEAEs: 24.4%
  patients with Grade 3 treatment-related events: 11.6%
  patients with grade 4 TEAEs: 9.3%
  patients with ≥ 1 TEAE of any grade: 95.3%
120 mg/day (n = 86), 5 patients
  Treatment-related grade 4 neutropenia: 5.8% and 6%
120 mg/day, approximately
  time of grade 4 neutropenia events after initiation of palazestrant: 6-8 weeks
60 or 120 mg/day (n = 116)
  treatment discontinuation due to AEs: 6.0%
RP2D of 120 mg/day
  severity of most TEAEs: grade 1–2; also recorded: grade 1 or 2
  severity of the majority of TRAEs: grade 1 or 2
RP2D, 120 mg/day
  TEAE bradycardia: 9%
  TEAE photopsia: 5%
  grade of all bradycardia and photopsia events: grade 1
  treatment-related diarrhea of any grade: 13%
  treatment-related diarrhea, grade ≥ 3: no grade ≥ 3 events
All dose-escalation cohorts (30 to 300 mg)
  severity of the majority of TEAEs: grade 1 or 2
[1]
  QTcF values: ≤ 500 ms
  changes in QTcF: no clinically significant changes
Of seven patients who discontinued due to AEs
  discontinuations due to AEs assessed as related to palazestrant: 5 patients
Of the 5 patients with treatment-related grade 4 neutropenia, 120 mg/day
  neutropenia resolved upon treatment discontinuation: 2 patients
Of the 6 patients with grade 4 neutropenia
  grade 4 neutropenia resolved following discontinuation of palazestrant: 3 patients
Phase 1a, 30 mg (N=5)
  TEAE Constipation, Toxicity Grade All: 1 (20.0)
  TEAE Constipation, Toxicity Grade G3: 0
  TEAE Constipation, Toxicity Grade G4: 0
  TEAE Decreased appetite, Toxicity Grade All: 1 (20.0)
  TEAE Decreased appetite, Toxicity Grade G3: 0
  TEAE Decreased appetite, Toxicity Grade G4: 0
  TEAE Diarrhea, Toxicity Grade All: 2 (40.0)
  TEAE Diarrhea, Toxicity Grade G3: 0
  TEAE Diarrhea, Toxicity Grade G4: 0
  TEAE Fatigue, Toxicity Grade All: 2 (40.0)
  TEAE Fatigue, Toxicity Grade G3: 0
  TEAE Fatigue, Toxicity Grade G4: 0
  TEAE Headache, Toxicity Grade All: 1 (20.0)
  TEAE Headache, Toxicity Grade G3: 0
  TEAE Headache, Toxicity Grade G4: 0
  TEAE Maculopapular rash, Toxicity Grade All: 1 (20.0)
  TEAE Maculopapular rash, Toxicity Grade G3: 0
  TEAE Maculopapular rash, Toxicity Grade G4: 0
  TEAE Nausea, Toxicity Grade All: 2 (40.0)
  TEAE Nausea, Toxicity Grade G3: 0
  TEAE Nausea, Toxicity Grade G4: 0
  TEAE Neutropenia, Toxicity Grade G3: 0
  TEAE Neutropenia, Toxicity Grade G4: 1 (20.0)
  TEAE Vomiting, Toxicity Grade All: 1 (20.0)
  TEAE Vomiting, Toxicity Grade G3: 0
  TEAE Vomiting, Toxicity Grade G4: 0
Phase 1a, 30 mg (N=5), includes neutropenia and neutrophil count decreased
  TEAE Neutropenia, Toxicity Grade All: 1 (20.0)
Phase 1a, 60 mg (N=6)
  TEAE Constipation, Toxicity Grade All: 1 (16.7)
  TEAE Constipation, Toxicity Grade G3: 0
  TEAE Constipation, Toxicity Grade G4: 0
  TEAE Decreased appetite, Toxicity Grade All: 0
  TEAE Decreased appetite, Toxicity Grade G3: 0
  TEAE Decreased appetite, Toxicity Grade G4: 0
  TEAE Diarrhea, Toxicity Grade All: 2 (33.3)
  TEAE Diarrhea, Toxicity Grade G3: 0
  TEAE Diarrhea, Toxicity Grade G4: 0
  TEAE Fatigue, Toxicity Grade All: 3 (50.0)
  TEAE Fatigue, Toxicity Grade G3: 0
  TEAE Fatigue, Toxicity Grade G4: 0
  TEAE Headache, Toxicity Grade All: 1 (16.7)
  TEAE Headache, Toxicity Grade G3: 0
  TEAE Headache, Toxicity Grade G4: 0
  TEAE Maculopapular rash, Toxicity Grade All: 1 (16.7)
  TEAE Maculopapular rash, Toxicity Grade G3: 0
  TEAE Maculopapular rash, Toxicity Grade G4: 0
  TEAE Nausea, Toxicity Grade All: 2 (33.3)
  TEAE Nausea, Toxicity Grade G3: 0
  TEAE Nausea, Toxicity Grade G4: 0
  TEAE Neutropenia, Toxicity Grade G3: 0
  TEAE Neutropenia, Toxicity Grade G4: 0
  TEAE Vomiting, Toxicity Grade All: 1 (16.7)
